# Source: patent publication US8889876B2, “Histone deacetylase inhibitors and uses thereof” (Jiangsu Hengyi Pharmaceutical Co., Ltd., priority 2008, dated 2014)
# Columns and labels:
# [1] = system: K562: human chronic myeloid leukemia cell strain; experiment: MTT cytotoxicity to tumor cell strains, K562; format: cell-based; conditions: Homo sapiens, read-out: Cell activity (IC50, μg/ml) K562
# Experimental: (§1) The cytotoxicity of samples to tumor cell strains is determined through MTT.
# [2] = system: histone deacetylase; experiment: in vitro inhibition activity on histone deacetylase (rat liver homogenate, MAL fluorescent substrate); format: biochemical, rats; conditions: n = 4, 37° C., 16 hours
# Experimental: A 96-well plate (black) for determining […] is made by Costar Company of U.S. The histone deacetylase is obtained by homogenization of liver of rats. The histone deacetylase reacts with small molecular fluorescent substrate MAL such that the substrate MAL is deacetylated to become ML.
# The compound to be detected is dissolved with 200 μL of DMSO. The stock solution of the compound to be detected is diluted with PBS to a concentration of the working solution. The histone deacetylase, the MAL fluorescent substrate and the compound to be detected are mixed in a water bath at 37° C. and reacted 16 hours. The final concentration of the compound to be detected is: MS275 and its similar compound: 10, 100 μmol/.
# The reaction solution is extracted with ethyl acetate. The extract is pumped in vacuum and thereto added 110 μL of methanol (40%). Taking 50 μL/well to a 96-well plate and making a fluorescent detection at 325/390 nm.
# The negative control wherein histone deacetylase is not added to the reaction is 100% inhibition. The control that only contains histone deacetylase without any inhibitor is the background (0% inhibition). The inhibition rate of the sample to be detected=(the detected fluorescent value−the background)/(the fluorescent value of the negative control−background)×100%
# The inhibition rate and the standard deviation in the results are the average inhibition percentage and the standard deviation of each parallel well in each dosage group.
# [3] = system: Hut 78 (T-cell Leukemia cell); experiment: MTT cytotoxicity to tumor cell strains, Hut 78; format: cell-based; conditions: Homo sapiens, HuT78; Hut 78, MTT; read-out: Cell activity (IC50, μg/ml) Hut 78
# Experimental: as §1
# [4] = system: A549 (human lung adenocarcinoma cells); experiment: MTT cytotoxicity to tumor cell strains, A549; format: cell-based; conditions: Homo sapiens, read-out: Cell activity (IC50, μg/ml) A549
# Experimental: as §1
# [5] = system: Jurkat E6-1 human T-cell lymphoma; experiment: CCK-8 proliferation inhibition, Jurkat E6-1; format: cell-based; conditions: Homo sapiens; for inhibition at 10 µM: Jurkat E6.1, 10 μM; for inhibition at 100 µM: Jurkat E6.1, 100 μM
# Outline: (§2)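 Compounds tested at two concentrations, 10 μM and 100 μM, with inhibition rates from CCK-8 viability read-out.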
# [6] = system: Hut78 T-cell Leukemia cell; experiment: CCK-8 proliferation inhibition, Hut78; format: cell-based; conditions: Homo sapiens, read-out: Hut-78 (inhibition %); for inhibition at 10 µM: HuT78, 10 μM; for inhibition at 100 µM: HuT78, 100 μM
# Outline: as §2
# [7] = system: PANC-1 human pancreatic cancer cells; experiment: CCK-8 proliferation inhibition, PANC-1; format: cell-based; conditions: Homo sapiens; for inhibition at 10 µM: PANC-1, 10 μM; for inhibition at 100 µM: PANC-1, 100 μM
# Outline: as §2
# [8] = system: PC-3 human prostate cancer; experiment: CCK-8 proliferation inhibition, PC-3; format: cell-based; conditions: Homo sapiens, CCK-8 method; for inhibition at 10 µM: compound concentration 10 μM; for inhibition at 100 µM: compound concentration 100 μM
# Outline: as §2
# [9] = system: Colo320 human rectal cancer cells; experiment: CCK-8 proliferation inhibition, Colo320; format: cell-based; conditions: Homo sapiens, COLO 320, CCK-8 method; for inhibition at 10 µM: compound concentration 10 μM; for inhibition at 100 µM: compound concentration 100 μM
# Outline: as §2
# [10] = system: K562 human chronic myeloid leukemia cells; experiment: CCK-8 proliferation inhibition, K562; format: cell-based; conditions: Homo sapiens; for inhibition at 10 µM: K562, 10 μM; for inhibition at 100 µM: K562, 100 μM
# Outline: as §2
# [11] = system: A549 human lung cancer cells; experiment: CCK-8 proliferation inhibition, A549; format: cell-based; conditions: Homo sapiens, A549, CCK-8 method; for inhibition at 10 µM: compound concentration 10 μM; for inhibition at 100 µM: compound concentration 100 μM
# Outline: as §2
# [12] = system: MDA-MB-435s human breast cancer cells; experiment: CCK-8 proliferation inhibition, MDA-MB-435s; format: cell-based; conditions: Homo sapiens, MDA-MB-435S, CCK-8 method; for inhibition at 10 µM: compound concentration 10 μM; for inhibition at 100 µM: compound concentration 100 μM
# Outline: as §2
# [13] = system: Hep3B2.1-7 human liver cancer cells; experiment: CCK-8 proliferation inhibition, Hep3B2.1-7; format: cell-based; conditions: Homo sapiens, Hep3B, CCK-8 method; for inhibition at 10 µM: compound concentration 10 μM; for inhibition at 100 µM: compound concentration 100 μM
# Outline: as §2
# [14] = system: histone deacetylase; experiment: in vitro inhibition of histone deacetylase by HDAC inhibitor screening kit (Biovision K340-100); format: biochemical
# Experimental: An assay for determining the in vitro inhibition activity of the compound on histone deacetylase is conducted according to the specification of HDAC inhibitor screeing kid (Biovision Company/Catalog #K340-100). […]
SMILES,inhibition at 10 µM [5] [%],inhibition at 100 µM [5] [%],inhibition at 10 µM [6] [%],inhibition at 100 µM [6] [%],inhibition at 10 µM [7] [%],inhibition at 100 µM [7] [%],inhibition at 10 µM [8] [%],inhibition at 100 µM [8] [%],inhibition at 10 µM [9] [%],inhibition at 100 µM [9] [%],inhibition at 10 µM [10] [%],inhibition at 100 µM [10] [%],inhibition at 10 µM [11] [%],inhibition at 100 µM [11] [%],inhibition at 10 µM [12] [%],inhibition at 100 µM [12] [%],inhibition at 10 µM [13] [%],inhibition at 100 µM [13] [%],Inhibition rate(%) ([14]; 3.91 μM),Inhibition rate(%) ([14]; 62.5 μM),other results
"Nc1ccccc1CNC(=O)c1ccc(CNC(=O)OCc2cccnc2)cc1 [V-1, N-(2-aminobenzyl)-4-[(3-pyridylmethoxyacyl)aminomethyl]benzamide]",,,,,,,,,,,,,,,,,,,,,IC50 [1]: > 100 µg/mL; inhibition rate % average number ([2]; dosage 10 μmol/L): 0.479%; inhibition rate % average number ([2]; dosage 100 μmol/L): 0.293%; IC50 [3]: 12.5 µg/mL; IC50 [4]: > 100 µg/mL
"COc1cc(/C=C/C(=O)NCc2ccc(C(=O)Nc3cccnc3N)cc2)cc(OC)c1OC [V-34, N-(2-amino-3-pyridyl)-4-[(3,4,5-trimethoxycinnamoyl)aminomethyl]benzamide]",4.7,52.7,9.9,53.1,9.2,4,7,40.2,7.3,5.9,12.8,61.2,-7.4,6.2,21.5,42.9,1,28.1,,,IC50 [1]: > 100 µg/mL; IC50 [3]: 68.5 µg/mL; IC50 [4]: > 100 µg/mL
"Nc1ncccc1NC(=O)c1ccc(CNC(=O)/C=C/c2ccc([N+](=O)[O-])cc2)cc1 [V-36, N-(2-amino-3-pyridyl)-4-[(4-nitrocinnamoyl)aminomethyl]benzamide]",12.5,83.3,8.1,60,20.8,39.5,-9.4,22.1,7.9,14.1,34.1,64.8,2.4,12,30.8,61.2,11.3,40.6,,,IC50 [1]: > 100 µg/mL; IC50 [3]: 17.1 µg/mL; IC50 [4]: > 100 µg/mL
"O=C(NCc1ccc(C(=O)Nc2ccccn2)cc1)OCc1cccnc1 [V-2, N-(2-pyridyl)-4-[(3-pyridylmethoxyacyl)aminomethyl]benzamide]",,,,,,,,,,,,,,,,,,,,,IC50 [1]: > 100 µg/mL; inhibition rate % average number ([2]; dosage 10 μmol/L): −0.124%; inhibition rate % average number ([2]; dosage 100 μmol/L): 0.080%; IC50 [3]: 76.2 µg/mL; IC50 [4]: > 100 µg/mL
COc1cccc(/C=C/C(=O)NCc2ccc(C(=O)Nc3ccncc3N)cc2)c1 [V-92],87.5,95.5,46.2,78.5,6.3,33.3,41,73.8,6,65.5,68.7,91.1,2.2,54.2,23.7,77.7,20.2,80.5,24.0,56.1,Inhibition rate(%) ([14]; 2 mM): 65.7%
Cc1ccc(/C=C/C(=O)NCc2ccc(C(=O)Nc3ccncc3N)cc2)cc1 [V-28],84.8,89.4,44.4,85.7,-1.7,52,48.1,75.5,6.5,58.8,64.3,92.9,17.1,96.4,25.2,88.8,23.5,60,30.4,56.8,Inhibition rate(%) ([14]; 2 mM): 66.0%
"Nc1ncccc1NC(=O)c1ccc(CNC(=O)/C=C/c2cccnc2)cc1 [V-42, N-(2-amino-3-pyridyl)-4-[(3-pyridylacryloyl)aminomethyl]benzamide]",62.4,93.7,28.2,55.8,20.8,50.6,81.4,89.4,26.3,77,27.9,67.7,56.3,88.8,24.2,89.2,21.2,58.8,11.4,40.2,Inhibition rate(%) ([14]; 2 mM): 82.4%
"COc1cc(COC(=O)NCc2ccc(C(=O)Nc3cccnc3N)cc2)cc(OC)c1OC [V-13, N-(2-amino-3-pyridyl)-4-[(3,4,5-trimethoxybenzyloxyacyl)aminomethyl]benzamide]",0.9,22.8,10.8,24,22.3,26.4,5.1,19.3,4.4,4.2,-2.8,30.3,24.6,42.3,-11.9,11.8,27,26.2,1.9,7.8,Inhibition rate(%) ([14]; 2 mM): 50.0%
COc1cccc(COC(=O)NCc2ccc(C(=O)Nc3ccncc3N)cc2)c1 [V-95],21.6,93.8,8,58,7,48.7,30.6,80,-1.9,68.8,50.6,71.9,-12.6,48.3,4.2,72.5,16.7,72,17.2,46.7,Inhibition rate(%) ([14]; 2 mM): 90.6%
COc1ccc(/C=C/C(=O)NCc2ccc(C(=O)Nc3ccncc3N)cc2)cc1 [V-30],83.1,88.2,42.3,71.8,12.3,39.4,44.6,69,5.4,40.8,60.9,83.4,21.8,69.9,18,81.4,38.3,69.2,28.2,56.9,Inhibition rate(%) ([14]; 2 mM): 67.5%
